From US9452986B2, “6-heteroaryloxy- or 6-aryloxy-quinoline-2-carboxamides and method of use” (AbbVie Inc., priority 2014, dated 2016)
Read-outs that look alike come from different tables or passages of the source.

Target: recombinant human Nav1.7 (Homo sapiens (Human), UniProt Q15858)
Test: FRET-based membrane potential assay, recombinant human sodium channel Nav1.7
Type: cell-based
Conditions: read-out: FRET-Membrane Potential Nav1.7 IC50
Procedure, shortened: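 Channel activation used veratridine at its EC80, set by a dilution curve each experiment, together with Leiurus scorpion venom, added 3 min after compound. Membrane-potential ratio signals from FLIPR Tetra in HEPES-buffered HBSS were fitted to a four-parameter Hill equation for percent inhibition and IC50.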

[1] = HEK293 cells stably expressing recombinant human Nav1.7, veratridine + scorpion venom depolarization

recombinant human Nav1.7, sequence (Q15858 whole entry): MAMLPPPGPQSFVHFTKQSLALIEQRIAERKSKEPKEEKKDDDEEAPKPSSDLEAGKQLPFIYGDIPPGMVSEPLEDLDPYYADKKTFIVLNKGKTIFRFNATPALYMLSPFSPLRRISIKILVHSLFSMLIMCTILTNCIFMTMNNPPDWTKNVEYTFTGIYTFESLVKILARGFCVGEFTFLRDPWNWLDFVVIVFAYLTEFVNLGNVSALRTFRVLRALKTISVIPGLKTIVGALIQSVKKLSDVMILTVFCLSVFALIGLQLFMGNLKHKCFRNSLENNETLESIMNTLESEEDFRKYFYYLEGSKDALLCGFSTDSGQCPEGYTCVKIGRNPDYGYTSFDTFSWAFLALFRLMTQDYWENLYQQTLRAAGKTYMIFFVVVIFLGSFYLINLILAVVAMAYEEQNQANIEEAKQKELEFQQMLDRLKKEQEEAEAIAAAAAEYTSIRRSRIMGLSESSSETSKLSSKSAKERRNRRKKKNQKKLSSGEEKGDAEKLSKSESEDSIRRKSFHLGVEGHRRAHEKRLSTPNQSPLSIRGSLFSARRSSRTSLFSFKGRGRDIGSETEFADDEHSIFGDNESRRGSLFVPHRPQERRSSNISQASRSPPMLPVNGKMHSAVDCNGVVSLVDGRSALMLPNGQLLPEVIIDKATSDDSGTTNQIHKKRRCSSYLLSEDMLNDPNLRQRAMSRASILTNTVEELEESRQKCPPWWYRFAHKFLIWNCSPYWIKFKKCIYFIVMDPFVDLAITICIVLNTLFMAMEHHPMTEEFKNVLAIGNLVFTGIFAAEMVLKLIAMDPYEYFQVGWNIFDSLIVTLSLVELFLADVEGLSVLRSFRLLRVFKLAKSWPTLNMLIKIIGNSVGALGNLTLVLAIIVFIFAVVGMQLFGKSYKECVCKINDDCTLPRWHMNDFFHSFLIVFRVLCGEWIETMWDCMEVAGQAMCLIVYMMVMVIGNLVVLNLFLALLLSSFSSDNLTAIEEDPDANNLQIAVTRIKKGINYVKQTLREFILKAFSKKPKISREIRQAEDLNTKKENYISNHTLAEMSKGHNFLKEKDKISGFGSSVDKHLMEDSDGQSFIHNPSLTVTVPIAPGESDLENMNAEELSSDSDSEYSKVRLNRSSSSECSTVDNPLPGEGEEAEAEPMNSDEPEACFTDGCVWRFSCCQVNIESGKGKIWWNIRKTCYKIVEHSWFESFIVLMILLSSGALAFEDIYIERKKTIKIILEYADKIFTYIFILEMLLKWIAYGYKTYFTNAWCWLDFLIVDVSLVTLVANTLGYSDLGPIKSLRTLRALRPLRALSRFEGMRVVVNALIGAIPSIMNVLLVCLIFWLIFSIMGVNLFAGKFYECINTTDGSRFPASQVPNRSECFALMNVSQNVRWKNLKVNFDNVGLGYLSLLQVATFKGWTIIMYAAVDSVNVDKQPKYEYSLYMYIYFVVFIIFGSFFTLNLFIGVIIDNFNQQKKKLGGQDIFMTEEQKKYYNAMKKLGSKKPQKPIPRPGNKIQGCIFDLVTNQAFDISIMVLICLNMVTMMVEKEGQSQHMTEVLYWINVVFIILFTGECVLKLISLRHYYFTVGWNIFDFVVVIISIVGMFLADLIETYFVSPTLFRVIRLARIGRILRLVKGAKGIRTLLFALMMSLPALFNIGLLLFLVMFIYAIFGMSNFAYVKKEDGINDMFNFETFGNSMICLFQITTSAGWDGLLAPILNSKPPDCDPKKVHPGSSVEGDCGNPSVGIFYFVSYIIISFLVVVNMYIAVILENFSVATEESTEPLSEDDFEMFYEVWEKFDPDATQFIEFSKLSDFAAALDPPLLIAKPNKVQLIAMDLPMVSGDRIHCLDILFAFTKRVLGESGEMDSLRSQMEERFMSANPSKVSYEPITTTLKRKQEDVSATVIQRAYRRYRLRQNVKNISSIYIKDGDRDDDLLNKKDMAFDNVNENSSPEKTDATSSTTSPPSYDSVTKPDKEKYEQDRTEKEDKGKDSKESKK

## COCCCNC(=O)c1ccc2cc(Oc3ccc(C(F)(F)F)cn3)ccc2n1 [Example 599, N-(3-methoxypropyl)-6-{[5-(trifluoromethyl)pyridin-2-yl]oxy}quinoline-2-carboxamide]
[1]
  IC50: 1590 nM

## N#Cc1ccc(Oc2ccc3nc(C(=O)NCc4ccc5c(c4)OCO5)ccc3c2)cc1 [Example 104, N-(1,3-benzodioxol-5-ylmethyl)-6-(4-cyanophenoxy)quinoline-2-carboxamide]
[1]
  IC50: > 20000 nM

## CC(C)NC(=O)CN(C)C(=O)c1ccc2cc(Oc3ccc(C(F)(F)F)cn3)ccc2n1 [Example 454, N-[2-(isopropylamino)-2-oxoethyl]-N-methyl-6-{[5-(trifluoromethyl)pyridin-2-yl]oxy}quinoline-2-carboxamide]
[1]
  IC50: 3140 nM

## O=C(NCCc1ccccn1)c1ccc2cc(Oc3ccc(C(F)(F)F)cn3)ccc2n1 [Example 606, N-[2-(pyridin-2-yl)ethyl]-6-{[5-(trifluoromethyl)pyridin-2-yl]oxy}quinoline-2-carboxamide]
[1]
  IC50: 856 nM

## O=C(c1ccc2cc(Oc3ccc(C(F)(F)F)cn3)ccc2n1)N1CC(c2cccnc2)C1 [Example 217, [3-(pyridin-3-yl)azetidin-1-yl](6-{[5-(trifluoromethyl)pyridin-2-yl]oxy}quinolin-2-yl)methanone]
[1]
  IC50: 1040 nM

## O=C(c1ccc2cc(Oc3ccc(C(F)(F)F)cn3)ccc2n1)N1CCN(CC(F)(F)F)CC1 [Example 181, [4-(2,2,2-trifluoroethyl)piperazin-1-yl](6-{[5-(trifluoromethyl)pyridin-2-yl]oxy}quinolin-2-yl)methanone]
[1]
  IC50: 3470 nM

## CN1CCCN(C(=O)c2ccc3cc(Oc4ccc(C(F)(F)F)cn4)ccc3n2)CC1 [Example 260, (4-methyl-1,4-diazepan-1-yl)(6-{[5-(trifluoromethyl)pyridin-2-yl]oxy}quinolin-2-yl)methanone]
[1]
  IC50: 1040 nM

## N[C@H]1CC[C@@H]2CN(C(=O)c3ccc4cc(Oc5ccc(C(F)(F)F)cn5)ccc4n3)C[C@@H]21 [Example 248, [(3aR,4S,6aS)-4-aminohexahydrocyclopenta[c]pyrrol-2(1H)-yl](6-{[5-(trifluoromethyl)pyridin-2-yl]oxy}quinolin-2-yl)methanone]
[1]
  IC50: 17300 nM

## CC(C)(C)N1CCN(C(=O)c2ccc3cc(Oc4ccc(C(F)(F)F)cn4)ccc3n2)CC1 [Example 228, (4-tert-butylpiperazin-1-yl)(6-{[5-(trifluoromethyl)pyridin-2-yl]oxy}quinolin-2-yl)methanone]
[1]
  IC50: 1150 nM

## N#Cc1ccc(Oc2ccc3nc(C(=O)NC4CCS(=O)(=O)C4)ccc3c2)nc1 (stereo not drawn) [Example 158, 6-[(5-cyanopyridin-2-yl)oxy]-N-(1,1-dioxidotetrahydrothiophen-3-yl)quinoline-2-carboxamide]
[1]
  IC50: > 20000 nM

## O=C(NCc1ccccn1)c1ccc2cc(Oc3ccc(C(F)(F)F)cn3)ccc2n1 [Example 151, N-(pyridin-2-ylmethyl)-6-{[5-(trifluoromethyl)pyridin-2-yl]oxy}quinoline-2-carboxamide]
[1]
  IC50: 792 nM

## O=C(NCCN1CCCC1=O)c1ccc2cc(Oc3ccc(C(F)(F)F)cn3)ccc2n1 [Example 337, N-[2-(2-oxopyrrolidin-1-yl)ethyl]-6-{[5-(trifluoromethyl)pyridin-2-yl]oxy}quinoline-2-carboxamide]
  IC50: 1660 nM

## N#CCCCNC(=O)c1ccc2cc(Oc3ccc(C(F)(F)F)cn3)ccc2n1 [Example 595, N-(3-cyanopropyl)-6-{[5-(trifluoromethyl)pyridin-2-yl]oxy}quinoline-2-carboxamide]
[1]
  IC50: 1130 nM

## O=C(NCC(=O)N1CCC[C@@H]1CO)c1ccc2cc(Oc3ccc(C(F)(F)F)cn3)ccc2n1 [Example 570, N-{2-[(2R)-2-(hydroxymethyl)pyrrolidin-1-yl]-2-oxoethyl}-6-{[5-(trifluoromethyl)pyridin-2-yl]oxy}quinoline-2-carboxamide]
[1]
  IC50: 977 nM

## O=C(c1ccc2cc(Oc3ccc(C(F)(F)F)cn3)ccc2n1)N1CC(Oc2ccc(Br)cc2)C1 [Example 206, [3-(4-bromophenoxy)azetidin-1-yl](6-{[5-(trifluoromethyl)pyridin-2-yl]oxy}quinolin-2-yl)methanone]
[1]
  IC50: > 20000 nM
